Results published in patent US20240043439A1, “COMPOUNDS AS C5AR INHIBITORS” (Kira Pharmaceuticals (Suzhou) Ltd., priority 2020, published 2024).

Experiments:
[1] = biological target: human C5a receptor (C5aR) (Homo sapiens (Human), UniProt P21730); assay: Inhibition of C5a-C5aR binding (biotinylated human C5a, U937/C5aR cells, FACS)
Method: U937 cells were originally obtained from the American Type Culture Collection (ATCC) and transfected with human C5a receptor (C5aR). U937/C5aR cells were cultured at 37° C., 5% CO2 in RPMI1640 (Gibco) supplemented with 10% FBS (Gibco) and 350 µg/ml Geneticin (Gibco) and passaged every 3 days to maintain the density range from […] to 2×10^6 cells/ml.
Human C5a biotinylation was performed according to the procedure provided by manufacturer (Thermo Scientific, A39257). 10 mM solution of Sulfo-NHS-LC-Biotin was prepared by adding 180μl ultrapure H2O to the 1 mg vial immediately. 12 μl 10 mM biotin reagent was added to […] human C5a solution, gently pipetted for 3 seconds, and incubated on ice for 2 hours. Amicon ultra-0.5 centrifuge filter device (Millipore, UFC5003BK) was pre-rinsed with Milli-Q H2O, centrifuged at 14000 g for 5 min immediately before use. Up to […] sample (diluted by PBS) was added to the device and capped. The device was spinned at 14000 g for approximately 5 min. 250 μl PBS was added to the filter device, spinned at 14000 g for 5 min, and repeatedly washed 6 times. The filter device was separated from the microcentrifuge tube and placed upside down in a clean microcentrifuge tube, spinned for 2 min at 1000 g to transfer the concentrated sample from the device to the tube.
U937/C5aR cells were collected and washed twice by PBS, cells were suspended in PBS+0.1% BSA buffer at the density of 3×10^6 cells/ml. 100 μl cell suspension was added to a 96 well microplate. 50 μl compound diluted in assay buffer and 50 μl biotinylated ligand human C5a (30 nM) were added to corresponding wells in order and the plate was incubated on ice for 120 min and then centrifuged at 1000 rpm for 3-5 min at 4° C. Supernatant was removed and cells were washed by pre-cold PBS twice. 100 μl FITC conjugated streptavidin was added to cells, incubated on ice for another 30 min, and then centrifuged at 1000 rpm for 3-5 min at 4° C. Supernatant was removed and cells were washed by pre-cold PBS twice. 150 μl PBS was added to suspend the cells and signals were detected by FACS (Beckman, Cytoflex).

[2] = biological target: C5aR (Homo sapiens (Human), UniProt P21730); assay: Calcium mobilization (U937/C5aR or HEK293/C5aR cells, FLIPR); format: cell-based; conditions: agonist human C5a at EC80, FLIPR
In short: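 FLIPR calcium-flux read-out using Fluo-4 Direct-loaded C5aR-expressing U937 or HEK293 cells stimulated with human C5a at its EC80. Compound was applied for 60 min before dye loading (50 min at 37 °C plus 10 min at room temperature) and agonist addition.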

Sequence of human C5a receptor (C5aR) (P21730 whole entry): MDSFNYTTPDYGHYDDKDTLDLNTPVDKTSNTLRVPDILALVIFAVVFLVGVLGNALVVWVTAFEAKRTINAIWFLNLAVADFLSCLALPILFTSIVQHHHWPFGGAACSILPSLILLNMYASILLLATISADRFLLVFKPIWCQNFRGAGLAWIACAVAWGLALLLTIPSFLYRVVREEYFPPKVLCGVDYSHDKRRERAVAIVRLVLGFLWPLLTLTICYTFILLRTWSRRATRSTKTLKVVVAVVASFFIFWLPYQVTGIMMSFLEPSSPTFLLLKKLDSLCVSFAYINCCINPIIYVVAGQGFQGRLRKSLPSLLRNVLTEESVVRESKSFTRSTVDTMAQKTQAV
Sequence of C5aR (P21730 whole entry): as above

Cc1ccc(NC(=O)C2C[C@@H]3CCC[C@@H]3N(C(=O)c3c(C)cccc3F)C2c2ccc(NC3CCCC3)cc2)cc1P(C)(C)=O (relative stereo) [Compound 76, cis-2-(4-(cyclopentylamino)phenyl)-N-(3-(dimethylphosphoryl)-4-methylphenyl)-1-(2-fluoro-6-methylbenzoyl)octahydro-1H-cyclopenta[b]pyridine-3-carboxamide]
IC50 [1]: 2000 to 5000 nM | IC50 [2]: 2000 to 10000 nM

Cc1cccc(F)c1C(=O)N1C2CCC[C@@H]2C[C@H](C(=O)Nc2ccnc(C(F)(F)F)c2)[C@@H]1c1ccc(NC2CCCC2)cc1 (relative stereo) [Compound 79, cis-2-(4-(cyclopentylamino)phenyl)-1-(2-fluoro-6-methylbenzoyl)-N-(2-(trifluoromethyl)pyridin-4-yl)octahydro-1H-cyclopenta[b]pyridine-3-carboxamide]
IC50 [1]: 2000 to 5000 nM | IC50 [2]: 2000 to 10000 nM

Cc1ccc(NC(=O)C2C[C@H]3CCC[C@H]3N(C(=O)c3cn(C)cn3)C2c2ccc(NC3CCCC3)cc2)cc1C(F)(F)F (relative stereo) [Compound 113, cis-2-(4-(cyclopentylamino)phenyl)-1-(1-methyl-1H-imidazole-4-carbonyl)-N-(4-methyl-3-(trifluoromethyl)phenyl)octahydro-1H-cyclopenta[b]pyridine-3-carboxamide]
IC50 [1]: 2000 to 5000 nM | IC50 [2]: > 10000 nM

Cc1cccc(F)c1C(=O)N1C2COC[C@@H]2C[C@H](C(=O)Nc2ccccc2)[C@@H]1c1ccc(NC2CCOCC2)cc1 (relative stereo) [Compound 129, cis-1-(2-fluoro-6-methylbenzoyl)-N-phenyl-2-(4-((tetrahydro-2H-pyran-4-yl)amino)phenyl)octahydrofuro[3,4-b]pyridine-3-carboxamide]
IC50 [1]: 2000 to 5000 nM | IC50 [2]: 2000 to 10000 nM

Cc1cccc(F)c1C(=O)N1C(c2ccc(NC3CCCC3)cc2)C(C(=O)Nc2ccc3c(c2)CCNC3)C[C@@H]2CCC[C@@H]21 (relative stereo) [Compound 184, cis-2-(4-(cyclopentylamino)phenyl)-1-(2-fluoro-6-methylbenzoyl)-N-(1,2,3,4-tetrahydroisoquinolin-6-yl)octahydro-1H-cyclopenta[b]pyridine-3-carboxamide]
IC50 [1]: 2000 to 5000 nM | IC50 [2]: 2000 to 10000 nM

Cc1cccc(F)c1C(=O)N1C(c2ccc(N(C)C3CCCC3)cc2)C(C(=O)Nc2ccc3c(c2)CCN(C)C3)C[C@@H]2CCC[C@@H]21 (relative stereo) [Compound 201, cis-2-(4-(cyclopentyl(methyl)amino)phenyl)-1-(2-fluoro-6-methylbenzoyl)-N-(2-methyl-1,2,3,4-tetrahydroisoquinolin-6-yl)octahydro-1H-cyclopenta[b]pyridine-3-carboxamide]
IC50 [1]: > 5000 nM | IC50 [2]: 2000 to 10000 nM

Cc1ccc(NC(=O)[C@H]2CCCN(c3ccnc(Cl)n3)[C@H]2c2ccc(NC3CCCC3)cc2)cc1C(F)(F)F [Compound 2, (2R,3S)-1-(2-chloropyrimidin-4-yl)-2-(4-(cyclopentylamino)phenyl)-N-(4-methyl-3-(trifluoromethyl)phenyl)piperidine-3-carboxamide]
IC50 [1]: 2000 to 5000 nM | IC50 [2]: 2000 to 10000 nM

Cc1ccc(NC(=O)[C@H]2CCCN(c3ccncn3)[C@H]2c2ccc(NC3CCCC3)cc2)cc1C(F)(F)F [Compound 4, (2R,3S)-2-(4-(cyclopentylamino)phenyl)-N-(4-methyl-3-(trifluoromethyl)phenyl)-1-(pyrimidin-4-yl)piperidine-3-carboxamide]
IC50 [1]: 2000 to 5000 nM | IC50 [2]: 2000 to 10000 nM

Cc1ccc(NC(=O)[C@H]2CCCN(c3nccc4cccnc34)[C@H]2c2ccc(NC3CCCC3)cc2)cc1C(F)(F)F [Compound 6, (2R,3S)-2-(4-(cyclopentylamino)phenyl)-N-(4-methyl-3-(trifluoromethyl)phenyl)-1-(1,7-naphthyridin-8-yl)piperidine-3-carboxamide]
IC50 [1]: 500 to 2000 nM | IC50 [2]: 2000 to 10000 nM

Cc1ccc(NC(=O)[C@@H]2CCCN(c3ncnc4cccnc34)[C@H]2c2ccc(NC3CCCC3)cc2)cc1C(F)(F)F [Compound 7, (2R,3R)-2-(4-(cyclopentylamino)phenyl)-N-(4-methyl-3-(trifluoromethyl)phenyl)-1-(pyrido[3,2-d]pyrimidin-4-yl)piperidine-3-carboxamide]
IC50 [1]: 2000 to 5000 nM | IC50 [2]: 2000 to 10000 nM

Cc1ccc(NC(=O)[C@H]2CCCN(S(=O)(=O)c3c(C)noc3C)[C@H]2c2ccc(NC3CCCC3)cc2)cc1C(F)(F)F [Compound 8, (2R,3S)-2-(4-(cyclopentylamino)phenyl)-1-((3,5-dimethylisoxazol-4-yl)sulfonyl)-N-(4-methyl-3-(trifluoromethyl)phenyl)piperidine-3-carboxamide]
IC50 [1]: 2000 to 5000 nM | IC50 [2]: 2000 to 10000 nM

Cc1ccc(S(=O)(=O)N2CCC[C@H](C(=O)Nc3ccc(C)c(C(F)(F)F)c3)[C@@H]2c2ccc(NC3CCCC3)cc2)c(C)c1 [Compound 9, (2R,3S)-2-(4-(cyclopentylamino)phenyl)-1-((2,4-dimethylphenyl)sulfonyl)-N-(4-methyl-3-(trifluoromethyl)phenyl)piperidine-3-carboxamide]
IC50 [1]: 2000 to 5000 nM | IC50 [2]: 2000 to 10000 nM

Cc1ccc(C)c(S(=O)(=O)N2CCC[C@H](C(=O)Nc3ccc(C)c(C(F)(F)F)c3)[C@@H]2c2ccc(NC3CCCC3)cc2)c1 [Compound 10, (2R,3S)-2-(4-(cyclopentylamino)phenyl)-1-((2,5-dimethylphenyl)sulfonyl)-N-(4-methyl-3-(trifluoromethyl)phenyl)piperidine-3-carboxamide]
IC50 [1]: 500 to 2000 nM | IC50 [2]: > 10000 nM

Cc1ccc(NC(=O)[C@H]2CCCN(S(=O)(=O)c3c(C)cccc3C)[C@H]2c2ccc(NC3CCCC3)cc2)cc1C(F)(F)F [Compound 11, (2R,3S)-2-(4-(cyclopentylamino)phenyl)-1-((2,6-dimethylphenyl)sulfonyl)-N-(4-methyl-3-(trifluoromethyl)phenyl)piperidine-3-carboxamide]
IC50 [1]: 500 to 2000 nM | IC50 [2]: 2000 to 10000 nM

Cc1cc(C)c(S(=O)(=O)N2CCC[C@H](C(=O)Nc3ccc(C)c(C(F)(F)F)c3)[C@@H]2c2ccc(NC3CCCC3)cc2)c(C)c1 [Compound 13, (2R,3S)-2-(4-(cyclopentylamino)phenyl)-1-(mesitylsulfonyl)-N-(4-methyl-3-(trifluoromethyl)phenyl)piperidine-3-carboxamide]
IC50 [1]: 2000 to 5000 nM | IC50 [2]: 2000 to 10000 nM

Cc1ccc(NC(=O)[C@H]2CCCN(S(=O)(=O)c3ccccc3[N+](=O)[O-])[C@H]2c2ccc(NC3CCCC3)cc2)cc1C(F)(F)F [Compound 14, (2R,3S)-2-(4-(cyclopentylamino)phenyl)-N-(4-methyl-3-(trifluoromethyl)phenyl)-1-((2-nitrophenyl)sulfonyl)piperidine-3-carboxamide]
IC50 [1]: 2000 to 5000 nM | IC50 [2]: 2000 to 10000 nM

Cc1ccc(NC(=O)[C@H]2CCCN(S(=O)(=O)c3ccc(F)cc3C)[C@H]2c2ccc(NC3CCCC3)cc2)cc1C(F)(F)F [Compound 15, (2R,3S)-2-(4-(cyclopentylamino)phenyl)-1-((4-fluoro-2-methylphenyl)sulfonyl)-N-(4-methyl-3-(trifluoromethyl)phenyl)piperidine-3-carboxamide]
IC50 [1]: 2000 to 5000 nM | IC50 [2]: 2000 to 10000 nM

Cc1ccc(NC(=O)[C@H]2CCCN(S(=O)(=O)c3cccc(Cl)c3C)[C@H]2c2ccc(NC3CCCC3)cc2)cc1C(F)(F)F [Compound 16, (2R,3S)-1-((3-chloro-2-methylphenyl)sulfonyl)-2-(4-(cyclopentylamino)phenyl)-N-(4-methyl-3-(trifluoromethyl)phenyl)piperidine-3-carboxamide]
IC50 [1]: 2000 to 5000 nM | IC50 [2]: > 10000 nM

Cc1ccc(NC(=O)[C@H]2CCCN(S(=O)(=O)c3cc(F)ccc3C)[C@H]2c2ccc(NC3CCCC3)cc2)cc1C(F)(F)F [Compound 17, (2R,3S)-2-(4-(cyclopentylamino)phenyl)-1-((5-fluoro-2-methylphenyl)sulfonyl)-N-(4-methyl-3-(trifluoromethyl)phenyl)piperidine-3-carboxamide]
IC50 [1]: 500 to 2000 nM | IC50 [2]: 2000 to 10000 nM

Cc1ccc(NC(=O)[C@H]2CCCN(S(=O)(=O)c3cccc(F)c3C)[C@H]2c2ccc(NC3CCCC3)cc2)cc1C(F)(F)F [Compound 18, (2R,3S)-1-((3-fluoro-2-methylphenyl)sulfonyl)-2-(4-(cyclopentylamino)phenyl)-N-(4-methyl-3-(trifluoromethyl)phenyl)piperidine-3-carboxamide]
IC50 [1]: 2000 to 5000 nM | IC50 [2]: > 10000 nM
